In the supplement of paper PMC4862054 one finds normalised viability and normalised response data, which are given here for five compounds.

What all share (settings): incubation time: 72 h
The test system of assay [1] is MDA-MB-453. Put plainly: normalised viability (% of control), CellTiter-Blue; higher = more viable cells (about 100 = DMSO control). The procedure: (§1)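 DSRT, CellTiter-Blue viability, 72 h incubation. Signal is normalised to DMSO and benzethonium chloride controls. Value is the normalised response at dose 9.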
In general terms: The colour change of resazurin is a common sign of viable cells or microbes.

The subject of assay [2] is DU-4475. Described as above. As for the experimental part: as §1
In assay [3] the test system is CAL-148. Described as above. The procedure: as §1
Assay [4] relates to HDQ-P1. Described as above. As for the experimental part:
as §1

For assay [5], the system named is CAL-51. The description is as above. The procedure:
as §1

Assay [6] has as its system CAL-85-1. The description is as above. As for the experimental part: as §1
In assay [7] the test system is MDA-MB-453. As to the kind of experiment: normalised response (% of control), CellTiter-Glo; higher = more viable cells (100 = DMSO, 0 = benzethonium chloride kill control). The procedure, abridged:
(§2)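 For each plate, 0.1 % DMSO was set to 100 and a positive kill control to 0. Breast cancer cell lines (20 µl suspension) were seeded into 384-well plates already holding compound at 5 concentrations in 10-fold steps over a 10,000-fold range chosen per compound, and incubated for 72 h. CellTox Green fluorescence at 485/520 nm was read before CellTiter-Glo luminescence, which followed 10 min at room temperature. Each value is the normalised signal at one concentration.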
In general terms: Cellular ATP, detected with luciferase, serves as a proxy for viable cell number.

The subject of assay [8] is DU-4475. The description is as above. Put shortly: as §2
The test system of assay [9] is MDA-MB-231. Described as above. Put shortly:
as §2

Assay [10] relates to HCC1937. The assay is described as above. Put shortly:
as §2

Assay [11] has as its system CAL-148. The description is as above. The procedure, abridged: as §2
For assay [12], the system named is BT-474. The assay is described as above. The procedure, abridged:
as §2

Assay [13] concerns MDA-MB-468. The description is as above. Put shortly:
as §2

Assay [14] concerns HDQ-P1. Described as above. Put shortly:
as §2

Assay [15] relates to MDA-MB-436. Described as above. Put shortly: as §2
The test system of assay [16] is HCC1143. The description is as above. Put shortly: as §2
The subject of assay [17] is CAL-51. Described as above. Put shortly: as §2
For assay [18], the system named is CAL-120. The assay is described as above. The procedure, abridged:
as §2

The test system of assay [19] is MFM-223. The assay is described as above. Put shortly:
as §2

The subject of assay [20] is Hs578T. The assay is described as above. Put shortly:
as §2

Assay [21] deals with BT-549. Described as above. The procedure, abridged:
as §2

Assay [22] has as its system MCF-10A. Described as above. The procedure, abridged:
as §2

The subject of assay [23] is CAL-85-1. The assay is described as above. Put shortly:
as §2

For assay [24], the system named is HCC1599. The assay is described as above. Put shortly:
as §2

In assay [25] the test system is SK-BR-3. The description is as above. Put shortly: as §2
The test system of assay [26] is MDA-MB-453. As to the kind of experiment: normalised viability (% of control), CellTiter-Blue; higher = more viable cells (100 = DMSO, 0 = benzethonium chloride kill control). As for the experimental part: (§3)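 DSRT, CellTiter-Blue viability, 72 h incubation. Signal is normalised to DMSO and benzethonium chloride controls. Value is the normalised response at dose 1.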

The test system of assay [27] is DU-4475. The assay is described as above. As for the experimental part: as §3
The subject of assay [28] is MDA-MB-231. The description is as above. As for the experimental part:
as §3

The subject of assay [29] is HCC1937. The assay is described as above. The procedure:
as §3

In assay [30] the test system is CAL-148. The description is as above. The procedure: as §3
The test system of assay [31] is MDA-MB-468. The description is as above. As for the experimental part: as §3
The test system of assay [32] is HDQ-P1. Described as above. The procedure: as §3
The subject of assay [33] is MDA-MB-436. Described as above. The procedure: as §3
The subject of assay [34] is HCC1143. The description is as above. As for the experimental part:
as §3

Assay [35] relates to CAL-51. The description is as above. The procedure:
as §3

In assay [36] the test system is CAL-120. The assay is described as above. As for the experimental part: as §3
Assay [37] relates to MFM-223. The assay is described as above. As for the experimental part: as §3
For assay [38], the system named is Hs578T. Described as above. As for the experimental part:
as §3

Assay [39] relates to BT-549. Described as above. As for the experimental part: as §3
Assay [40] relates to CAL-85-1. The description is as above. As for the experimental part:
as §3

Assay [41] has as its system HCC1599. Described as above. The procedure: as §3
Assay [42] relates to SK-BR-3. Described as above. The procedure: as §3
Assay [43] deals with MDA-MB-453. Put plainly: normalised viability (% of control), CellTiter-Blue; higher = more viable cells (about 100 = DMSO control). The procedure: (§4)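 DSRT, CellTiter-Blue viability, 72 h incubation. Signal is normalised to DMSO and benzethonium chloride controls. Value is the normalised response at dose 8.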
This is another data set of the same source.

For assay [44], the system named is CAL-148. The assay is described as above. As for the experimental part: as §4
This is another data set of the same source.

Assay [45] has as its system HDQ-P1. The assay is described as above. As for the experimental part: as §4
This is another data set of the same source.

For assay [46], the system named is CAL-51. The description is as above. The procedure: as §4
This is another data set of the same source.

In assay [47] the test system is CAL-85-1. The description is as above. As for the experimental part:
as §4
The source holds these as a separate data set.

SMILES strings stand for the structures. Values joined by “and” are separate entries in the source; they are usually repeats but may differ in a detail not shown here. Equal values may be shown once.

In the case of `COc1c2occc2cc2ccc(=O)oc12` [Methoxsalen] (10000 nM), the normalised viability came out at 28.5% in assay [1]; 71.6% in assay [2]; 53.6% in assay [3]; 128% in [4]; 49.2% in assay [5]; 61% in assay [6].
As to `C=CCN(/C=C1/C(=O)O[C@H](COC)[C@@]2(C)C1=C(O)C(=O)C1=C2[C@H](OC(C)=O)C[C@]2(C)C(=O)CC[C@@H]12)CC=C` [PX-866] (10000 nM), the normalised viability in assay [1] stood at 70.2%; in assay [2] it was 88%; in assay [3], 112%; in assay [4], 53.2%; in assay [5], 97.8%; in assay [6], 88.9%.
On to `CC[C@H](CO)Nc1nc(NCc2ccccc2)c2ncn(C(C)C)c2n1` [Roscovitine] (10000 nM), for which the normalised viability amounted to 63.4% in [1]; 96.6% in [2]; 80.8% in assay [3]; 75.6% in assay [4]; 85% in assay [5]; 61.9% in assay [6].
For `O=C(CCCCCCC(=O)Nc1ccccc1)NO` [Vorinostat] (1 nM), the normalised response in assay [7] stood at 97.9%; in assay [8], 98.4%; in assay [9], 94.8%; in assay [10], 99%; in assay [11], 102%; in assay [12], 93.1%. The normalised response in assay [13] was 96%; in assay [14] it was 104%; in assay [15], 98.3%; in assay [16], 91.1%; in assay [17], 80.8%; in assay [18], 95.9%. Also, the normalised response stood at 102% in assay [19]; 97.5% in assay [20]; 108% in assay [21]; 92.1% in assay [22]; 104% in assay [23]; 94.1% in assay [24]. The normalised response in assay [25] amounted to 88%. For the same compound, the normalised viability was 106% in [26]; 100% and 106% in [27]; 89.6% and 94.1% in assay [28]; 102% and 89.7% in [29]; 89.8% and 101% in [30]; 109% in assay [31]. Further, the normalised viability in assay [32] is 84.8% and 99.5%; in assay [33], 101% and 100%; in [34], 94.7% and 100%; in assay [35], 103% and 96%; in assay [36] it was 83.4% and 95.8%; in [37] it was 90% and 100%. The normalised viability in assay [38] is 108% and 97.3%; in assay [39], 94.4% and 117%; in assay [40] it was 91.5% and 104%; in assay [41], 97.8% and 94.4%; in assay [42] it was 89.7% and 91.5%.
On to `O=C(CCCCCCC(=O)Nc1ccccc1)NO` [Vorinostat] (3000 nM), for which the normalised viability in assay [43] is 12.2% and 9.84%; in [44] it was 49.7% and 59.7%; in assay [45], 68.1% and 62.5%; in [46], 101% and 94.8%; in [47], 59.5% and 66.1%.
